This passage reports refractive index and mass density results from the NIST ThermoML archive (doi:10.1016/j.jct.2005.01.004).

A short description of series [1]: refractive index (Na D-line) (dimensionless). Conditions: 298.15 K; 101.33 kPa; Liquid; Standard Abbe refractometry.
For series [2] the following is noted: 298.15 K; 101.33 kPa; Liquid.

Molecules are shown by their SMILES. Numbers after ± are expanded uncertainties.

For orientation: refractive index means the speed of light in vacuum divided by its phase velocity in the sample. In general, mass density refers to mass per unit of volume.

For `CO` [methanol], in series [1], the refractive index was 1.3264 ± 0.0007. Further, in series [2], the mass density turned out to be 786.63 ± 0.61 kg/m3.
